Results on ten compounds are retold here after ChEMBL document CHEMBL1201862, “PubChem BioAssay data set” (2004).

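All cell lines were grown in 96-well plates and treated with compound for 48 hours. GI50 is the concentration that inhibits growth by half.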 Calls of active or inactive are those of the source. Rule as the data show it: active = GI50 up to about 1.1 µM and inactive = higher.

Among the test systems are COLO 205; OVCAR-4; EKVX; K562; HCT-116; HCT-15; SK-MEL-2; MDA-N; RXF 393; HOP-92; SF-268; SR; UACC-257; ACHN; DU-145; UO-31; NCI-H226; HT-29; CCRF-CEM; NCI-H460.
Common to all, as to assay: DTP human tumour cell line panel, 48 h

In the case of `O=C(NCCN1CCCCC1)c1ccc(I)cc1`, the GI50 with COLO 205 is 94.6 µM (inactive); with OVCAR-4 it was > 100 µM (inactive); in the assay with EKVX it was > 100 µM (inactive); with K562 it was > 100 µM (inactive); in the assay with HCT-116, > 100 µM (inactive); with HCT-15, > 100 µM. The GI50 in the assay with SK-MEL-2 is > 100 µM (inactive); in the assay on MDA-N, > 100 µM (inactive); in the assay on RXF 393, 42.4 µM (inactive); with HOP-92, 96.4 µM (inactive); in the assay with SF-268, > 100 µM (inactive); with SR it was > 100 µM (inactive). Moreover, the GI50 was > 100 µM (inactive) in the assay with UACC-257; > 100 µM (inactive) in the assay on ACHN; 69.3 µM (inactive) with DU-145; > 100 µM (inactive) with UO-31; > 100 µM (inactive) in the assay with NCI-H226; 39.5 µM (inactive) in the assay on HT-29. Further, the GI50 in the assay on CCRF-CEM and in the assay on NCI-H460 was > 100 µM (inactive) throughout.

With `CC(=O)OCC1CCC(=C2C(=O)OC(C)(C)OC2=O)N1` (stereo not drawn), the GI50 is > 100 µM (inactive) in the assay on COLO 205; > 100 µM (inactive) in the assay on OVCAR-4; > 100 µM (inactive) with EKVX; > 100 µM (inactive) in the assay with K562; > 100 µM (inactive) with HCT-116; > 100 µM in the assay with HCT-15. For the same compound, the GI50 in the assay on SK-MEL-2, in the assay with MDA-N, in the assay on RXF 393, in the assay on HOP-92, in the assay with SF-268 and with SR was > 100 µM (inactive) throughout. In addition, the GI50 in the assay on UACC-257, with DU-145, in the assay on UO-31, in the assay with NCI-H226, in the assay with HT-29 and in the assay with CCRF-CEM was > 100 µM (inactive) throughout. In the assay with NCI-H460, the GI50 was > 100 µM (inactive).

Regarding `N=C(N)NS(=O)(=O)c1ccc(NNC(=O)c2cccc3c(O)c4ccccc4nc23)cc1`, the GI50 in the assay on COLO 205 was 24.7 µM (inactive); in the assay with OVCAR-4, 29.5 µM (inactive); in the assay with EKVX, 23.4 µM (inactive); with K562, 24 µM (inactive); in the assay with HCT-116, 24.5 µM (inactive); in the assay with HCT-15 it was 23 µM. The GI50 with SK-MEL-2 is 25.1 µM (inactive); with MDA-N, 25.2 µM (inactive); in the assay on RXF 393, 38.1 µM (inactive); with HOP-92 it was 25.3 µM (inactive); in the assay on SF-268 it was 33.7 µM (inactive); in the assay with SR it was 35.6 µM (inactive). In addition, the GI50 in the assay with UACC-257 is 31.6 µM (inactive); in the assay on ACHN, 21.1 µM (inactive); with DU-145 it was 32.7 µM (inactive); in the assay on UO-31, 18.9 µM (inactive); in the assay with NCI-H226, 25.5 µM (inactive); in the assay with HT-29 it was 21.6 µM (inactive). Moreover, the values for the GI50 in the assay with CCRF-CEM and in the assay with NCI-H460 were 34.4 µM (inactive) and 20.6 µM (inactive), respectively.

Consider `O=S(=O)(c1ccccc1)N1CCCC(c2ccccc2)CC1` (stereo not drawn), for which the GI50 is 42 µM (inactive) in the assay with COLO 205; 79.1 µM (inactive) in the assay with OVCAR-4; 19.4 µM (inactive) in the assay with K562; 38.3 µM (inactive) in the assay on HCT-116; 46.5 µM with HCT-15; 45.9 µM (inactive) with SK-MEL-2. In addition, the GI50 with MDA-N was 64.6 µM (inactive); in the assay with RXF 393, 41.5 µM (inactive); in the assay on HOP-92 it was > 100 µM (inactive); with SF-268, 27.8 µM (inactive); in the assay with SR, 16.9 µM (inactive); with UACC-257, 38.9 µM (inactive). In addition, the GI50 in the assay on ACHN was 29.2 µM (inactive); in the assay with DU-145, > 100 µM (inactive); with UO-31 it was 55 µM (inactive); in the assay with NCI-H226, 52.7 µM (inactive); with HT-29, 15.1 µM (inactive); with CCRF-CEM, 33.8 µM (inactive). The GI50 in the assay with NCI-H460 was 31.2 µM (inactive).

On to `CN1CCN(C(=S)N(C)C(=O)c2ccc(Cl)cc2)CC1`, for which the GI50 is > 100 µM (inactive) in the assay on COLO 205; > 100 µM (inactive) in the assay on OVCAR-4; > 100 µM (inactive) with K562; > 100 µM in the assay with HCT-15; > 100 µM (inactive) in the assay on SK-MEL-2; > 100 µM (inactive) in the assay with MDA-N. Besides, the GI50 in the assay on RXF 393 is > 100 µM (inactive); in the assay with HOP-92, > 100 µM (inactive); in the assay on SF-268, > 100 µM (inactive); in the assay with SR it was > 10 µM (inactive); with UACC-257, > 100 µM (inactive); in the assay on ACHN, 0.132 µM (active). Besides, the GI50 in the assay on DU-145, in the assay on UO-31, in the assay on NCI-H226, in the assay with HT-29, with CCRF-CEM and in the assay with NCI-H460 was > 100 µM (inactive) throughout.

For the compound `C1CCNCC1.O=C1NC(=S)N/C1=C/c1ccccc1O`, the GI50 in the assay with COLO 205 is > 100 µM (inactive); in the assay on OVCAR-4 it was > 100 µM (inactive); with EKVX, > 100 µM (inactive); with HCT-116, > 100 µM (inactive); with HCT-15 it was > 100 µM; with SK-MEL-2, > 100 µM (inactive). Further, the GI50 in the assay with MDA-N, in the assay with RXF 393, with HOP-92, in the assay on SF-268, with SR and in the assay with UACC-257 was > 100 µM (inactive) in each case. Further, the GI50 is > 100 µM (inactive) in the assay on ACHN; > 100 µM (inactive) in the assay on DU-145; 95.3 µM (inactive) with UO-31; > 100 µM (inactive) with NCI-H226; > 100 µM (inactive) in the assay on HT-29; > 100 µM (inactive) in the assay with CCRF-CEM.

Take `CCOC(=O)c1sc2nc(SC)nc3c2c1NCN3c1ccc(F)c(F)c1`: the GI50 in the assay with COLO 205 was > 100 µM (inactive); in the assay with OVCAR-4, 4.76 µM (inactive); with EKVX it was 32.4 µM (inactive); in the assay on K562, > 100 µM (inactive); with HCT-116, 9.02 µM (inactive); in the assay on HCT-15 it was 12.4 µM. The GI50 in the assay on SK-MEL-2 is > 71 µM (inactive); in the assay on MDA-N it was 18.3 µM (inactive); with RXF 393 it was 6.43 µM (inactive); in the assay on HOP-92, 18.5 µM (inactive); with SF-268 it was 9.84 µM (inactive); with SR, > 21.5 µM (inactive). Further, the GI50 in the assay with UACC-257 was > 45.8 µM (inactive); in the assay on ACHN it was 6.97 µM (inactive); in the assay on DU-145, 8.43 µM (inactive); in the assay with UO-31, 22.1 µM (inactive); in the assay on NCI-H226, 29.9 µM (inactive); with HT-29 it was 29.8 µM (inactive). Moreover, the GI50 with CCRF-CEM is 16.7 µM (inactive); in the assay on NCI-H460, 8.63 µM (inactive).

On to `O=C1C(NCCO)=C(N2CC2)C(=O)C(NCCO)=C1N1CC1`, for which the GI50 in the assay with COLO 205 is > 67.6 µM (inactive); in the assay with OVCAR-4 it was > 57.4 µM (inactive); in the assay on EKVX, > 81.1 µM (inactive); in the assay on K562, 39.5 µM (inactive); in the assay on HCT-116, 29.6 µM (inactive); in the assay on HCT-15, 57.5 µM. For the same compound, the GI50 was > 58.3 µM (inactive) in the assay on SK-MEL-2; > 60.4 µM (inactive) in the assay on MDA-N; 71.3 µM (inactive) with RXF 393; > 73.1 µM (inactive) in the assay on HOP-92; 30.8 µM (inactive) with SF-268; 16.8 µM (inactive) in the assay on SR. Further, the GI50 is > 74.3 µM (inactive) in the assay on UACC-257; 30.8 µM (inactive) in the assay on ACHN; > 77.3 µM (inactive) in the assay with DU-145; 51.9 µM (inactive) in the assay with UO-31; 57.5 µM (inactive) in the assay with NCI-H226; 49 µM (inactive) in the assay on HT-29. The GI50 is 17.9 µM (inactive) in the assay with CCRF-CEM and 10.2 µM (inactive) in the assay with NCI-H460.

On to `COC(=O)C1OC(O[C@H]2CC[C@]3(C)[C@H]4CC=C5[C@@H]6CC(C)(C)CC[C@]6(C(=O)OC6OCC(O)C(O)C6OC6OC(C)C(OC7OCC(OC8OCC(O)C(O)C8O)C(O)C7O)C(O)C6O)[C@H](O)C[C@@]5(C)[C@]4(C)CC[C@H]3C2(C)C)C(O)C(O)C1O` (stereo partly drawn), for which the GI50 with COLO 205 was 1.66 µM (inactive); with OVCAR-4, 9.31 µM (inactive); with EKVX it was 2.32 µM (inactive); with HCT-116, 2.19 µM (inactive); with HCT-15, 10.6 µM; in the assay on SK-MEL-2, 3.02 µM (inactive). Also, the GI50 was 1.78 µM (inactive) in the assay with MDA-N; 11.4 µM (inactive) in the assay with RXF 393; 1.91 µM (inactive) in the assay with HOP-92; 4.72 µM (inactive) in the assay with SF-268; 3.05 µM (inactive) in the assay with SR; 3.09 µM (inactive) in the assay on UACC-257. Further, the GI50 was 3.54 µM (inactive) in the assay on ACHN; 2.13 µM (inactive) in the assay with DU-145; 1.75 µM (inactive) in the assay on UO-31; 1.52 µM (inactive) in the assay on NCI-H226; 2.71 µM (inactive) with HT-29; 17.3 µM (inactive) in the assay on CCRF-CEM. Besides, in the assay on NCI-H460, the GI50 was 16 µM (inactive).

For the compound `CCCCCCCCCCCCCC/C(C(=O)O)=C(\C)C(=O)O`, the GI50 was > 100 µM (inactive) in the assay on COLO 205; > 100 µM (inactive) with OVCAR-4; > 100 µM (inactive) with EKVX; > 100 µM (inactive) with K562; > 100 µM (inactive) in the assay on HCT-116; > 100 µM in the assay with HCT-15. For the same compound, the GI50 with SK-MEL-2 was > 100 µM (inactive); in the assay with MDA-N, > 100 µM (inactive); with RXF 393, > 100 µM (inactive); in the assay on HOP-92, > 100 µM (inactive); with SF-268, > 100 µM (inactive); in the assay with SR, 41.5 µM (inactive). Moreover, the GI50 in the assay with UACC-257, with ACHN, in the assay with DU-145, in the assay on UO-31, in the assay with NCI-H226 and in the assay with HT-29 was > 100 µM (inactive) throughout. Further, the GI50 with CCRF-CEM and with NCI-H460 was > 100 µM (inactive) throughout.

As usually defined, the GI50 is the concentration that inhibits growth by half.
